Data as given in publication PMC6335172 (Acta Physiologica (Oxford, England), 2018).
Several values for one entry are separate records, joined by “and”; a condition that tells them apart may be missing. Equal entries are not always repeated. Where two headings read alike, the source gives them in different places.

Experiments:
[1] = target: wild type human I Ks channel (Kv7.1/KCNE1) (Homo sapiens, UniProt P51787); assay: Two-electrode voltage clamp of I Ks channel; format: cell-based; conditions: pH 9.0, mean ± SEM; for Max ΔV 0.5 (shift of voltage dependence of activation) / Max I/I 0 (relative increase in K+ current at 0 mV) / Max G max/G max0 (maximal conductance normalized to control): fitted maximum from dose response; for Max ΔV 0.5 (shift of voltage dependence of activation): G-V from tail currents
Kv7.1 channel = conditions: Kv7.1 without KCNE1; cited from earlier work
[2] = tested on: I Ks channel (coexpression of Kv7.1 and KCNE1); conditions: cited from earlier work; for Effect on the V 0.5 of the I Ks channel at pH 7.5: Kv7.1 co-expressed with KCNE1, pH 7.5
[3] = read-out: K m of ΔV 0.5, Hill fit of dose response
[4] = K m of ΔV 0.5, Hill fit of dose response

wild type human I Ks channel (Kv7.1/KCNE1), sequence (P51787 whole entry): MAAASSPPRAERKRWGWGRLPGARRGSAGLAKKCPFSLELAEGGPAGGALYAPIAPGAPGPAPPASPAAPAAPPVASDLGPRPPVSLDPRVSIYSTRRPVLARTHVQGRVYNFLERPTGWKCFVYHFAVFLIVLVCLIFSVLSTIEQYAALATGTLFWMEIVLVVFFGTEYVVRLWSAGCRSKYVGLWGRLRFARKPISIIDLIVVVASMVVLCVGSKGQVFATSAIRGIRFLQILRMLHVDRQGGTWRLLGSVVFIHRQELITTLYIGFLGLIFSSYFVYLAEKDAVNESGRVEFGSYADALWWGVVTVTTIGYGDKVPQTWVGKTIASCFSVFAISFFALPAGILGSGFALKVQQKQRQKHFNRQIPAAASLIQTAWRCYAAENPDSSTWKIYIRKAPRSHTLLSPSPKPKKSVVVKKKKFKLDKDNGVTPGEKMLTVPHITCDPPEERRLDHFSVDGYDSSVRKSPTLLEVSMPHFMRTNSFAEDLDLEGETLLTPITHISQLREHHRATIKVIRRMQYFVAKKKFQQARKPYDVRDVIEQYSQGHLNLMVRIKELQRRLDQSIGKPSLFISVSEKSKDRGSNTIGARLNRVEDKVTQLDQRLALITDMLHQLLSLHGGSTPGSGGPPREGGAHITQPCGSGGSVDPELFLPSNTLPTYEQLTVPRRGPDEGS

Row | SMILES | Max ΔV 0.5 (shift of voltage dependence of activation) [1] [mV] | Max I/I 0 (relative increase in K+ current at 0 mV) [1] | Max G max/G max0 (maximal conductance normalized to control) [1] | EC50 [1, 3] [µM] | EC50 [1, 4] [µM] | EC50 ([1]; read-out: K m of G max, Hill fit of dose response) [µM] | EC50 ([1]; K m of G max, Hill fit of dose response) [µM] | Shift of the voltage dependence of activation (V 0.5) of the Kv7.1 channel (Kv7.1 channel) | Effect on the V 0.5 of the I Ks channel at pH 7.5 [2] | Effect on K+ current when Kv7.1 is co-expressed with KCNE1, pH 7.5 ([2]; pH 7.5)
1 | CCC=CCC=CCC=CCCCC(=O)O [14:3Δ5,8,11, Tetradecatrienoic acid (5,8,11)] | 0.80 ± 6.5 | 1.1 ± 0.15 | 0.84 ± 0.1 |  |  |  |  |  |  | 
2 | CCC=CCC=CCC=CCCCCCC(=O)O [16:3Δ7,10,13, Hexadecatrienoic acid (7,10,13)] | −13.4 ± 0.6 | 2.1 ± 0.02 | 0.9 ± 0.2 | 7.2 ± 0.5 |  |  |  |  |  | 
3 | CCCCC/C=C\C/C=C\CCCCCCCC(=O)O [18:2Δ9,12, Linoleic acid (9,12)] | −29.8 ± 1.7 | 3.6 ± 0.6 | 1.06 ± 0.02 |  |  |  |  |  |  | 
4 | CC/C=C\C/C=C\C/C=C\C/C=C\C/C=C\CCCC(=O)O [20:5Δ5,8,11,14,17, Eicosapentaenoic acid (5,8,11,14,17)] | −25 ± 4.6 | 2.4 ± 0.05 | 1.0 ± 0.1 |  | 9.8 ± 4.4 |  |  |  |  | 
5 | CCC=CCC=CCC=CCC=CCC=CCCCCCC(=O)O [22:5Δ7,10,13,16,19, Docosapentaenoic acid (7,10,13,16,19)] | −4 ± 0.13 | 1.6 ± 0.05 | 1.2 ± 0.01 | 11.1 ± 0.6 |  | 1.2 ± 1.7 |  |  |  | 
6 | CC/C=C\C/C=C\C/C=C\C/C=C\C/C=C\C/C=C\CCC(=O)O [22:6Δ4,7,10,13,16,19, Docosahexaenoic acid (4,7,10,13,16,19)] | −20.2 ± 0.1 | 3.2 ± 0.1 and 3.2 ± 0.01 | 1.5 ± 0.2 |  | 3.1 ± 0.1 |  | 1.8 | to more negative voltages | no effect on the V 0.5 | abolished
7 | CCCCC/C=C\C/C=C\C/C=C\C/C=C\CCCC(=O)NCCS(=O)(=O)O [N‐AT, N‐arachidonoyl taurine] |  |  |  |  |  |  |  |  | retain the ability to shift the voltage dependence | 
